Measurements published in patent publication US4753928A, “Process for obtaining sexual products from mammals suitable for natural or artificial fertilization” (INNOFINANCE Altalanos Innovacios Pengintezet, priority 1985, dated 1988).
“And” between values parts separate entries of the source, which are not always exact repeats. Identical values can stand only once. Where a SMILES comes first, the peptide text is derived from it. [ ]: non-standard residue; d: D form. pGlu = O=C1CC[C@@H](C(=O)O)N1

What was measured:
[1] = system: ovary of domestic cat kittens; assay: Stimulating function of ovary in domestic cat (D-Phe6,Trp7,Leu8-GnRH); type: in vivo; settings: 100 μg i.m. every second day, three times; 45 days old kittens
Method: 5 kittens each weighing 0.3 kg and being 45 days old were treated with D-Phe^6, Trp^7, Leu^8 -GnRH analogue in such a way that prior to treatments the left side ovary was removed under narcosis. Then the […] were treated every second day, three times in all with doses of 100 μg each of the active ingredient diluted in normal saline solution administered intramuscularly. After treatment the remaining right side ovaries were removed, examined visually, then, after fixing, hystological examination was carried out.
Ovaries removed prior to treatment were quite homogeneous, butter-yellow in colour, growing follicle could not be detected in them either visually or hystologically. Following treatment 7-8 corpora haemorrhagica and several (not countable) growing follicles were found.

Siberian tiger male = assay: Treating Siberian tiger infertile owing to degenerated spermatogeny; type: in vivo
Text: A 8-year old Siberian tiger male of 120 kg and belonging to Zoo has lived with its mate for three years. Regular copulations took place on oestrus of the female, but no offspring was produced in any year. The possiblity that the female was at fault had to be excluded because previously she had pregnancy from an other male and the young ones born were reared as well. From the male in question through electrical means ejaculate was obtained under narcosis and it was established that it was very thin, 4-5 degenerate, vibrating sperms could be seen in each field of vision. Forms of degeneration were characteristic of the younger phases of spermiogenesis. Thereafter the animal was treated oncy weekly intramuscularly with a 100 μg dose of D-Phe^6, Trp^7, Leu^8 -GnRH diluted in normal saline solution of 1 ml, using the compressed air injection technique. The male was kept with its mate and they copulated regularly during the treatments. […] Calculating from the time of birth, fertile copulation ensued 40-50 days following the first treatment.

male orang-utan = assay: Treating aspermia caused by non-natural keeping in orang-utan; type: in vivo; settings: 47th day
Text: A 18-year old, male orang-utan of a weight of ca. […] and belonging to Zoo came into captivity in its infancy. Till the treatment it had three owners. […] It has been living in its present location for the past 11 years, it had neither a companion of his own kind nor a mate. […] The Zoo has been contacted that in case the animal is of Bornean Sub-species and fertile, it would be purchased. […] A factor questioning fertility in the case-history was the absence of aggressiveness typical of the male primates and the ceasing of regular masturbation during hospitalization 5-6 years before. Sperm sample was taken from the animal under narcosis, using electrical means. In the ejaculate secretion of the side gonads was exclusively found, in three parts 1--1 droplet, altogether a quantity of 0.1 ml.
Thereafter the animal was treated twice weekly with a dose of 100 μg D-Phe^6, Gln^8, DesGly^10 -GnRH ethylamide, i.e. similarly to the method used in Example 11. During treatment movement of the animal became more live and active. This, however, could not be attributed to the growth of libido, since it could have been caused by the fear from firing airgun injector. Treatment was finished on the 47th day following the first shot and ejaculate was taken twice under renewed narcosis and one hour interval; in this way altogether 3.2 ml of sperms were obtained. Density of sperm was 3, motility 35%. Amount of degenerated sperms reached 20%, practically made up of entirely young development forms (neck and middle part plasma droplets).

Bengalian tiger = assay: Stimulating normospermia to hyperspermia in Bengalian tiger; type: in vivo
Method: A 8-year old Bengalian tiger of a weight of 200 kg belonging to Zoo copulated regularly, its mate becoming pregnant regularly for years. With this knowledge, under narcosis and in the mating season sperm sample was taken electrically and it was established that the sample density reached 3, motility was 30% and quantity of ejaculate amounted to 0.2 ml. […] Deep freezing of such minute quantity of ejaculate, however, is for technical reasons not possible. In order to protect the animal and to avoid liver damage, narcosis can be repeated every four days at the most and kept on for 4-5 hours. Collecting of sperms this way is unaccomplishable. In our process the male was separated from the female and was treated daily for 12 days with 10 μg each of D-Phe^6, Gln^8, DesGly^10 -GnRH ethyl-amide which was diluted in 1 ml of normal saline solution and administered intramuscularly, using compressed air injection technique. On the 12th day, through electrical means the animal was ejaculated under narcosis twice with an hour time interval; in this way 1 ml and 0.8 ml of sperms were obtained. The two samples were combined and examined; a density of 4 was established, motility being 70%. Sperm samples were deep frozen and 21 doses suitable for artificial fertilization were prepared.

infant calves = assay: Inducing super-ovulation in infant cattle; type: in vivo
Method: 8 65-old day infant calves were treated for 8 days, three times daily, with 2 μg of D-Phe^6, Gln^8, desGly^10 -GnRH ethylamide each. After a day of rest, on the 10th day 100 μg active ingredient was administered each intramuscularly. Following the last injection, ovaries from both sides were removed; generally 5-11 developed Graf-follicles were registered in each ovary. 50% of the follicles were already past the stage when tight to the touch, i.e. they were follicles just prior to ovulation.

[2] = system: intact ovaries in organ culture; assay: Production of ova in cattle in vitro from ovary organ culture; type: cell-based; settings: 10^-9 -10^-8 g/ml; spontaneous ovulations and punctured ova
Method: Cattle in slaughter-house was stunned and bled, after which intact ovaries were removed within 30-55 minutes. Then in laboratory conditions they were placed in […]. To this culture liquid D-Phe^6, Gln^8, desGly^10 -GnRH ethyl-amide was given in a concentration of 10^-9 -10^-8 g/ml. Ovary stock took 16 to 43 hours to ovulate in organ culture. Out of the spontaneous ovulations of in vitro ovaries and from ova obtained with puncturing 85% were capable to continue meiosis (reductive cell division) and to be successfully fertilized in vitro by tractable sperms of cattle.

[3] = system: subordinate male chimpanzees; assay: Treating physiological oligospermia of chimpanzee; type: in vivo
Method: In our case, apart from sperm obtained from the dominant males, that was stored in sperm bank, we had to have expressly, for the purpose of insemination, sperm from the 4 subordinate males (all sexually mature). Before the treatment began, all animals were ejaculated under narcosis through electric shock method. Density and motility of the ejaculate was evaluated under microscope, then it was put under deep freeze probe (-196° C.). […] Thereafter male chimpanzees weighing 60 to 90 kilograms were administered intramuscularly 100 μg of D-Phe^6, Gln^8, desGly^10 -GnRH ethylamide diluted in 1 ml of normal saline solution using compressed air injection technique. […] Qualitative and quantitative characteristics of the ejaculates were similar to those obtained from the dominant male and to values published in technical literature.
After diluting the ejaculate in a 1:1 ratio, deep-freeze test was positive and the 60% motility decreased to only 45%. Sperms of this quality either fresh or in deep freeze are entirely suitable for the purposes of insemination.

female lambs = assay: Inducing super-ovulation in infant sheep; type: in vivo; settings: 10 μg twice daily 5 days i.m., 70 μg on 6th day; 50-day old lambs
Method: 10 50-day old female lambs were administered each intramuscularly twice daily for 5 days 10 μg doses each of D-Phe^6, Gln^8, desGly^10 -GnRH ethylamide. […] Evaluation of treated and untreated control animals was carried out with the aid of laparoscopy. The results were similar to those outlined in Examples 1 to 4.

female wild cats = assay: Cancelling seasonal unoestrus in adult wild cat; type: in vivo, Felis silvestris; settings: after 4 days; i.m. 100 μg then 500 μg two hours later, repeated after 48 hours
Method: 2 female wild cats from Zoo, with an average weight of 6 kg and having under normal conditions a cycle between February and March, were treated with D-Phe^6, Gln^8, desGly^10 -GnRH ethyl-amide. Before treatments began, abdominal cavity was opened under narcosis in order to see the condition of both ovaries. After sewing up the abdomen, animals were treated every second day, four times in total through intramuscular injection of the active ingredient diluted in normal saline solution. A two-hour interal was kept between the first and second injection; the first dose was 100 μg, the second one 500 μg. This was followed after 48 hours by the third dose of 100 μg, then two hours later by the fourth dose of 500 μg. On the 0., 2., 4. and 8th day of the treatment abdomen was opened under narcosis and changes in condition of the ovaries were visually evaluated. After treatment both ovaries were removed, fixed and their hystological evaluation was carried out.
On the 0. day of the treatment on left side ovary of both animals 3-4 supposed secondary follicles and 1 degenerated old corpus luteum, while on the right side ovary 5-6 supposed secondary follicles could be seen. […]

## CC(C)C[C@H](NC(=O)[C@H](Cc1c[nH]c2ccccc12)NC(=O)[C@@H](Cc1ccccc1)NC(=O)[C@H](Cc1ccc(O)cc1)NC(=O)[C@H](CO)NC(=O)[C@H](Cc1c[nH]c2ccccc12)NC(=O)[C@H](Cc1c[nH]cn1)NC(=O)[C@@H]1CCC(=O)N1)C(=O)N1CCC[C@H]1C(=O)NCC(N)=O [D-Phe^6, Trp^7, Leu^8 -GnRH] ([pGlu]HWSY[dF]WLPG-NH2)
[1]
  corpora haemorrhagica on remaining ovary: 7-8
Siberian tiger male; 100 μg once weekly i.m.
  pregnancy of mate / offspring: The female became pregnant, producing three healthy offsprings
Siberian tiger male; calculated from time of birth
  time of fertile copulation following the first treatment: 40 to 50 days

## CCNC(=O)[C@@H]1CCCN1C(=O)[C@H](CCC(N)=O)NC(=O)[C@H](CC(C)C)NC(=O)[C@@H](Cc1ccccc1)NC(=O)[C@H](Cc1ccc(O)cc1)NC(=O)[C@H](CO)NC(=O)[C@H](Cc1c[nH]c2ccccc12)NC(=O)[C@H](Cc1c[nH]cn1)NC(=O)[C@@H]1CCC(=O)N1 [D-Phe^6, Gln^8, desGly^10 -GnRH ethylamide] ([pGlu]HWSY[dF]LQP-NHEt)
Male orang-utan
  degenerated sperms: 20%
  density of sperm: 3
  sperm motility: 35%
Male orang-utan; 100 μg twice weekly, two ejaculations
  sperm volume obtained altogether: 3.2 mL
Bengalian tiger; 12th day
  density of combined sample: 4
Bengalian tiger; 12th day, combined sample
  sperm motility: 70%
Bengalian tiger; 12th day, 10 μg daily i.m. for 12 days, two ejaculations one hour apart, 0.2 ml before treatment, Gln^8, DesGly^10 -GnRH ethyl-amide
  sperm volume obtained per ejaculation: 1 mL and 0.8 mL
Bengalian tiger; after deep freezing
  motility of remelting sperms: 60%
Bengalian tiger; deep frozen samples
  doses suitable for artificial fertilization prepared: 21
Infant calves; 2 μg three times daily 8 days, 100 μg i.m. on 10th day, 65-day old calves
  developed Graf-follicles in each ovary: 5-11
Infant calves; same treatment
  follicles just prior to ovulation: 50%
[2]
  ova capable to continue meiosis and to be fertilized in vitro: 85%
[3]; 4 weeks after first treatment
  motility of ejaculate after deep freeze test: less than 10%
[3]; 4 weeks after first treatment, 100 μg i.m.
  young sperm formations in ejaculate: 40-60%
[3]; 60 days after first treatment
  defective sperms: below 30%
  sperm motility: exceeded 60%
[3]; 60 days, ejaculate diluted 1:1
  motility after deep-freeze test: 45%
Female lambs
  ovulations in each animal: 3-9
Female wild cats
  development of secondary follicles: all secondary follicles turned into Graf-follicles ovulated
